The target of data set [1] is T1, Human NTCP (Homo sapiens, UniProt Q14973).
T1 construct: expressed in transfected cells; peptide purchased from Pharmaron
T1 sequence (Q14973 1-349): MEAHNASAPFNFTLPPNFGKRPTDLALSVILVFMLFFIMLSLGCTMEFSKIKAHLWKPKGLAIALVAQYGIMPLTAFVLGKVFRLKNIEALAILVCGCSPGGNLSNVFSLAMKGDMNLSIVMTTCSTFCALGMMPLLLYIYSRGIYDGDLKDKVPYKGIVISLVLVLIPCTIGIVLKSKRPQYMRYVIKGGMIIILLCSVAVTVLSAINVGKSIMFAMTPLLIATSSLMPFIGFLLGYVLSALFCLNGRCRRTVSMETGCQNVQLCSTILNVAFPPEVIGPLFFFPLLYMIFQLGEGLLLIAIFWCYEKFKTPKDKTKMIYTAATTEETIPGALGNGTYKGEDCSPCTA
As to the kind of experiment: [3H]taurocholate uptake in hNTCP-transfected CHO cells, apparent Ki and type of inhibition. The class given is cell-based. The procedure: Stably hNTCP-transfected CHO cells were seeded onto 24 well plates. After overnight incubation, CHO cells were treated with 10 mM sodium butyrate to induce NTCP transporter expression. Twenty-four hours later, media was aspirated, cells were washed with warm Hanks balanced salt solution (HBSS) containing sodium (+Na). Cells were incubated with increasing doses of Compound 1 (for example: 0, 10 nM, 100 nM, 1 μM, 10 μM), in the presence of tracer doses of 5 μm, 10 μM, or 25 μM [^3H]taurocholate at 37° C. for <10 minutes. The cells were processed for radioactivity. The apparent Ki and kinetic types of inhibition (competitive, uncompetitive, non-competitive, mixed) were determined by complementary Dixon/Cornish-Bowden plot analysis and Lineweaver-Burk plot analysis.

The subject of data set [2] is HBV (HepG2 AD38 genotype D). The data set can be described thus: HBV infection of primary human hepatocytes, extracellular HBV DNA by qPCR. It counts as cell-based, hepatitis B virus. The conditions noted are these: for pEC50: Hepatitis B virus.
For data set [3], the system named is HBV genotype C. As to the kind of experiment: Serum HBsAg in HBV-infected PXB mice. It counts as in vivo, hepatitis B virus. The note with it: 10 mg/kg and 30 mg/kg, Day 7. The procedure: Target volume of blood was collected from all surviving animals under isoflurane anesthesia via the retro-orbital plexus/sinus using Intramedic™ Polyethylene Tubing at each time point. Two microliters (2 μL) from the collected blood were used for human albumin measurements. The remaining blood was centrifuged to separate serum to be used for analyzing the indicated biomarkers. Blood samples were collected according to Table 8.
The individual blood samples of the animals were left at room temperature for at least 5 minutes to coagulate and then centrifuged at 13200×g, 4° C. for 3 minutes to obtain serum. The serum was divided into separate labeled microtubes and stored at −80° C. until analysis.
Serum HBsAg concentration was determined by SRL, Inc. (Tokyo, Japan) based on a Chemiluminescent Enzyme Immuno Assay (CLEIA) developed by Fujirebio ([…] HBsAg-HQ, […]® Prestoll). The dilution factor was 30 and 10, and the measurement range of this assay was between 0.005 and 150 IU/mL. For the 30-fold diluted samples, the measurement range was adjusted to be between 0.15 and 4500 IU/mL. And for the 10-fold diluted samples, the measurement range was adjusted to be between 0.05 and 1500 IU/mL. The lowest quantification limit of this assay was 0.15 IU/mL serum.

In data set [4] the test system is NTCP-HepG2 cells. As to the kind of experiment: MTT cytotoxicity assay. The conditions noted are these: 1 nM-100 μM, HepG2 cells expressing NTCP. It counts as cell-based, human. The procedure:
The In Vitro Toxicology Assay Kit (Sigma-Aldrich) was used to perform a 3-[4,5-dimethylthiazole-2-yl]-2,5-diphenyltetrazolium bromide (MTT) assay to measure the cytotoxicity of the test item according to the manufacturer's protocol. Briefly, NTCP-HepG2 cells were incubated with 100 μL of the indicated concentrations of the test item solved in Hepatocyte Growth Medium (HGM) over 6 h at 37° C. After 6 h, medium was replaced by inhibitor-free HGM and cells were cultured for additional 24 h. Then medium was removed and 100 μL DMEM containing 0.5 mg/mL MTT was added and cells were incubated for 1 h at 37° C. Finally, the medium was replaced by 100 μL isopropyl alcohol (Sigma-Aldrich) and samples were measured by Glo-Max-Multi Detection System (Promega, Madison, Wis., USA). See also Lowjaga K A A, et al. (2020). Long-term trans-inhibition of the hepatitis B and D virus receptor NTCP by taurolithocholic acid. Am J Physiol Gastrointest Liver Physiol 320(1):G66-G80; and Kirstgen et al. 2021.
(Tetrazolium dyes change colour on reduction, which living cells bring about.)

pEC50, pKi: −log10 of the molar value. Read-outs that look alike come from different tables or passages of the source. A value given as a limit tells only on which side of the number the result lay.

By pKi is commonly meant the Ki on a negative log10 scale, so that one unit is a factor of ten. As a reminder, the pEC50 is −log10 of the EC50, conventionally taken in molar units. The inhibition is the relative decrease from the control value, in per cent. A higher inhibition goes with a response far below the control. Take `CCCCC1CN(c2ccccc2)c2cc(SC)c(O/C=C(\F)C(=O)O)cc2S(=O)(=O)N1C` (centres unmarked) [Compound 1, (Z)-3-((3-butyl-2-methyl-7-(methylthio)-1,1-dioxido-5-phenyl-2,3,4,5-tetrahydro-1,2,5-benzothiadiazepin-8-yl)oxy)-2-fluoroacrylic acid]: the “kinetic type of inhibition of transporter activity” value in data set [1] (Dixon/Cornish-Bowden and Lineweaver-Burk analysis, NTCP and ASBT) was “competitive inhibitor”. In data set [1] ([3H]taurocholate, CHO cells, read-out: inhibitory constant (Ki) for human NTCP), the pKi is 7.82. For the same molecule, the pEC50 in data set [2] (HepG2, 18 h, Study #01, compound given 18 h post-infection) was under 9.00; in data set [2] (HepG2, Study #01, #02 and #03 merged, four parameter regression, read-out: EC50 from fitted curve of merged data) it was 8.31; in data set [2] (HepG2, Study #01, compound given 18 h prior to infection, PHH, HBV DNA, read-out: EC50) it was 8.40; in data set [2] (HepG2, Study #02, PHH, read-out: EC50) it was over 8.20; in data set [2] (HepG2, Study #03, PHH, read-out: EC50) it was 7.96. The “antiviral activity/potency when given 18 h post-infection” value in data set [2] (Study #01) was “lost”. Further, the Max inhibition in data set [2] (Study #01, 18 h prior to infection) is 97%; in data set [2] (Study #02) it was 88%; in data set [2] (Study #03), 63%. Also, the “inhibition at the lowest concentration tested” value in data set [2] (Study #02, 6.25 nmol/L) is 58%. Also, the “serum HBsAg compared to controls” value in data set [3] is listed as “lower”. Also, in data set [4], the “cytotoxic effects (MTT)” value was “no cytotoxic effects”.

(Values after patent US20230398125A1, “TREATING HEPATITIS” (Albireo AB, priority 2022, published 2023).)
